Patent publication US20260272924A1, “ISOINDOLINE DERIVATIVE, BENZOINDOLE DERIVATIVE AND USE THEREOF” (SHANGHAI HELIOSON PHARMACEUTICAL CO., LTD., priority 2023, published 2026)
Read-outs that look alike come from different tables or passages of the source.

Assays:
CRBN = biological target: T1, CRBN (Homo sapiens, UniProt Q96SW2); assay: CRBN binding assay (HTRF competition)
T1 construct: purchased Cisbio 64BDCRBNPEG
Source text: Bonding activity between CRBN and compounds were detected by the HTRF competition assay using a CRBN binding kit (Cisbio, 64BDCRBNPEG). First, a reagent in the kit was equilibrated to room temperature and diluted to 1 fold with double-distilled water, and both the reagent and samples were uniformly mixed by thorough vortexing for later use. An europium-labeled specific GST antibody and an XL665-labeled thalidomide-red reagent (Cisbio, Cat No. 64BDCRBNPEG) were mixed in equal volumes in advance and then added into a 384-well white microplate at 10 μL per well. […] After uniform mixing, contents in the 384-well plate were sealed and incubated in the dark at room temperature for 3 hours.

[1] = system: NCI-H929 multiple myeloma cells; assay: Cell Titer-GLO (CTG) assay for proliferation of NCI-H929 cells; assay type: cell-based; settings: Homo sapiens, 72 hours
In short: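 NCI-H929 cells, 5000/well, treated next day with compound from 0.00512 to 400 nM (5-fold steps, duplicates) for 72 h at 37° C. Viability by CellTiter-Glo luminescence, normalised to 0.1% DMSO and medium blank; IC50 and maximal inhibition from nonlinear dose-response regression.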

IKZF1 = biological target: T2, IKZF1 (Homo sapiens, UniProt Q13422+Q96SW2); assay: Protein degradation assay (In-Cell Western), IKZF1; assay type: cell-based; settings: NCI-H929 cells, 24 hours
T2 construct: NCI-H929 cells were inoculated into a 96-well plate at 100,000 cells per well and cultured overnight; endogenous in cells; host or cells: NCI-H929
Method: (§1) NCI-H929 cells were inoculated into a 96-well plate at 100,000 cells per well and cultured overnight. Compounds at concentrations of 1600 nM, 400 nM, 100 nM, 25 nM, 6.25 nM, 1.56 nM, 0.39 nM, and 0.1 nM were dosed with duplicate wells, and the cells were incubated in an incubator at 37° C. for 24 hours. After the incubation, the supernatant was removed by centrifugation, and 150 μL of 4% paraformaldehyde was added. The cells were incubated at room temperature for 20 minutes, then, 200 μL of a washing solution (0.1% TritonX-100, Beyotime; ST1722) was added and incubated at room temperature on a shaker. After repeating the washing four times, 150 μL of a Licor INTERCEPT blocking solution (Lico, Cat No. 927-70001) was added, and the cells were incubated on a shaker at room temperature for 1.5 hours. Antibodies IKZF1 (Cell Signaling; Cat No. 14859S), IKZF3 (Cell Signaling; Cat No. 15103S), GSPT1 (Proteintech, Cat No. 10763-1-AP), CK1a (Thermo; 7117067), and SALL4 (Abcam, ab22675) were diluted with an antibody dilution solution (Intercept Blocking Buffer, LI-COR, 211114) at 1:100 and 50 μL of each diluted primary antibody was added into the 96-well plate. The cells were incubated overnight on a shaker at 4° C. After the primary antibodies were removed and repeated washing was performed with PBST for 4 times, 50 μL of a diluted secondary antibody (Licor, Cat No. 926-68070) was added, and IRDye 800CW and IRDye 680CW were added at 0.5 μL simultaneously. The secondary antibody was sucked away, PBST was added, repeated washing was performed on a shaker at room temperature for 4 times, and a signal intensity was detected using an infrared laser imaging system (Lico, Odyssey-CLx).

IKZF3 = biological target: T3, IKZF3 (Homo sapiens, UniProt Q96SW2+Q9UKT9); assay: Protein degradation assay (In-Cell Western), IKZF3; assay type: cell-based; settings: NCI-H929 cells, 24 hours
T3 construct: endogenous in cells; host or cells: NCI-H929
Method: as §1

[2] = clinical phase I trial, combined with dexamethasone, RRMM patients; cited from earlier work
[3] = patients, literature; cited from earlier work
[4] = GST-labeled CRBN WT protein, thalidomide-red competition, 3 hours, read-out: HTRF CRBN IC50

| Compound | IC50 (CRBN; [4]) [nM] | IC50 [1] [nM] | DC50 (IKZF1) [nM] | Dmax (IKZF1) [%] | DC50 (IKZF3) [nM] | Dmax (IKZF3) [%] | IC50 (CRBN) [nM] | objective response rate (ORR) [2] [%] | incidence rate of G3/G4 neutropenia [3] |
| --- | --- | --- | --- | --- | --- | --- | --- | --- | --- |
| Cc1ncn(-c2cccc(N3CCN(Cc4ccc(Cc5ccc6c7c(cccc57)C(=O)N6[C@H]5CCC(=O)NC5=O)cc4)CC3)n2)n1 [Example 37, (S)-3-(6-(4-((4-(6-(3-methyl-1H-1,2,4-triazol-1-yl)pyridin-2-yl)piperazin-1-yl)methyl)benzyl)-2-oxobenzo[cd]indol-1(2H)-yl)piperidin-2,6-dione] | 8 | 0.01 |  |  |  |  |  |  |  |
| O=C1CCC(N2C(=O)c3cccc4c(Cc5ccc(CN6CCN(c7ccnc(-n8cnc(C(F)(F)F)c8)n7)CC6)cc5)ccc2c34)C(=O)N1 (stereo not drawn) [Example 25, 3-(2-oxo-6-(4-((4-(2-(4-(trifluoromethyl)-1H-imidazol-1-yl)pyrimidin-4-yl)piperazin-1-yl)methyl)benzyl)benzo[cd]indol-1(2H)-yl)piperidin-2,6-dione] | 38 | 0.04 | 0.98 | 60 | 0.075 | 76.2 |  |  |  |
| Cc1nnc(-c2cccc(N3CCN(Cc4ccc(Cc5ccc6c7c(cccc57)C(=O)N6C5CCC(=O)NC5=O)cc4)CC3)n2)s1 (stereo not drawn) [Example 22, 3-(6-(4-((4-(6-(5-methyl-1,3,4-thiadiazol-2-yl)pyridin-2-yl)piperazin-1-vA)methyl)benzyl)-2-oxobenzo[cd]indol-1(2H)-yl)piperidin-2,6-dione] | 20 | 0.02 | 0.1 | 65.3 | 0.056 | 76.4 |  |  |  |
| N#Cc1ccc(N2CCN(Cc3ccc(COc4cccc5c4CN([C@H]4CCC(=O)NC4=O)C5=O)cc3)CC2)c(F)c1 [CC-92480, reference compound] |  |  |  |  |  |  | 108 | 54.4 |  |
| Cc1ncn(-c2cccc(N3CCN(Cc4ccc(Cc5ccc6c7c(cccc57)C(=O)N6C5CCC(=O)NC5=O)cc4)CC3)n2)n1 (stereo not drawn) [Example 23, 3-(6-(4-((4-(6-(3-methyl-1H-1,2,4-triazol-1-yl)pyridin-2-yl)piperazin-1-yl)methyl)benzyl)-2-oxobenzo[cd]indol-1(2H)-yl)piperidin-2,6-dione] | 19 | 0.01 | 0.077 | 65.8 | 0.036 | 77.1 |  |  |  |
| Cc1ncc(-c2nc(N3CCN(Cc4ccc(Cc5ccc6c7c(cccc57)C(=O)N6C5CCC(=O)NC5=O)cc4)CC3)cc(C(F)(F)F)n2)s1 (stereo not drawn) [Example 21, 3-(6-(4-((4-(2-(2-methylthiazol-5-yl)-6-(trifluoromethyl)pyrimidin-4-yl)piperazin-1-yl)methyl)benzyl)-2-oxobenzo[cd]indol-1(2H)-yl)piperidin-2,6-dione] | 34 | 0.2 | 8.86 | 57.1 | 0.22 | 74.1 |  |  |  |
| Nc1cccc2c1CN(C1CCC(=O)NC1=O)C2=O (stereo not drawn) [lenalidomide] |  |  |  |  |  |  |  |  | up to 35% |
| Nc1cccc2c1C(=O)N(C1CCC(=O)NC1=O)C2=O (stereo not drawn) [pomalidomide] |  |  |  |  |  |  |  |  | approximately 50% |
| Cc1nc(N2CCN(Cc3ccc(Cc4ccc5c6c(cccc46)C(=O)N5[C@H]4CCC(=O)NC4=O)cc3)CC2)cc(-n2cnc(C(F)(F)F)c2)n1 [Example 30, (S)-3-(6-(4-((4-(2-methyl-6-(4-(trifluoromethyl)-1H-imidazol-1-yl)pyrimidin-4-yl)piperazin-1-yl)methyl)benzyl)-2-oxobenzo[cd]indol-1(2H)-yl)piperidin-2,6-dione] | 27 | 0.01 | 0.37 | 74.1 | 0.093 | 73.2 |  |  |  |
